Patent US7514421B2, “Use of an IBAT inhibitor for the treatment of constipation” (Albireo AB, priority 2003, dated 2009)

Tested on: constipated dog
Assay: Buenos dog model for constipation (low fibre/high protein diet, 20 g meat/kg dog/day)
Format: in vivo
Conditions: constipated dogs
Source text: As stated hereinbefore the compounds defined in the present invention are useful in the treatment of functional constipation and C-IBS. These properties may be assessed, for example, using models known in the art: • Buenos dog model for constipation, (Hepato-gasteroenterology, 1980, 27, 381-389).
Once constipation has been induced the animals can be dosed with an IBAT inhibitor to asses the ability of the IBAT inhibitor to relieve the constipation.
The following data was generated using the Buenos dog model (method described in the publication above) with the modification that the dogs were given 20 g meat/kg dog/day. The result is calculated as mean value of the increase of faeces during the three treatment days subtracted with the entry value (day before start of treatment with the IBAT inhibitor). The dogs were judge as constipation if there faeces amount per day was below 30 gram.

SMILES | Result: mean increase of faeces during the three treatment days subtracted with the entry value (dose 1.5 μmol/kg, 2 animals) [g/day] | Result: mean increase of faeces during the three treatment days subtracted with the entry value (dose 1.5 μmol/kg, 2 animals, listed as compound 2) [g/day] | Result: mean increase of faeces during the three treatment days subtracted with the entry value (dose 1.5 μmol/kg, 2 animals, listed as compound 3) [g/day] | Result: mean increase of faeces during the three treatment days subtracted with the entry value (dose 5 μmol/kg, 3 animals) [g/day] | Result: mean increase of faeces during the three treatment days subtracted with the entry value (dose 5 μmol/kg, 3 animals, listed as compound 1) [g/day]
CCCCC1(CCCC)CN(c2ccccc2)c2cc(SC)c(OCC(=O)N[C@@H](C(=O)N[C@H](C(=O)O)[C@@H](C)O)c3ccc(O)cc3)cc2S(=O)(=O)N1 [Compound 2, 1,1-Dioxo-3,3-dibutyl-5-phenyl-7-methylthio-8-(N-{(R)-α-[N-((S)-1-carboxy-2-(R)-hydroxypropyl)carbamoyl]-4-hydroxybenzyl}carbamoylmethoxy)-2,3,4,5-tetrahydro-1,2,5-benzothiadiazepine] | 23 ± 11 | 23 ± 11 | – | – | –
CCCCC1(CCCC)CN(c2ccccc2)c2cc(SC)c(OCC(=O)N[C@@H](C(=O)N[C@H](C(=O)O)C(C)C)c3ccc(O)cc3)cc2S(=O)(=O)N1 [Compound 3, 1,1-Dioxo-3,3-dibutyl-5-phenyl-7-methylthio-8-(N-{(R)-α-[N-((S)-1-carboxy-2-methylpropyl)carbamoyl]-4-hydroxybenzyl}carbamoylmethoxy)-2,3,4,5-tetrahydro-1,2,5-benzothiadiazepine] | 39 ± 2 | – | 39 ± 2 | – | –
CCCCC1(CCCC)CN(c2ccccc2)c2cc(SC)c(OCC(=O)N[C@@H](C(=O)NCCS(=O)(=O)O)c3ccc(O)cc3)cc2S(=O)(=O)N1 [Compound 1, 1,1-Dioxo-3,3-dibutyl-5-phenyl-7-methylthio-8-(N-{(R)-α-[N-(2-sulphoethyl)carbamoyl]-4-hydroxybenzyl}carbamoylmethoxy)-2,3,4,5-tetrahydro-1,2,5-benzothiadiazepine] | – | – | – | 38 ± 7 | 38 ± 7
